Measured values from US6355799B1, “Substituted benzene compounds, process for their preparation, and herbicidal and defoliant compositions containing them” (ISK Americas Incorporated, priority 1997, dated 2002).

Assays:
Format in all cases: in vivo
[1] = test system: velvetleaf (Abutilon theophrasti, ABUTH); test: Pre-emerge test, greenhouse herbicide activity screening; settings: for phytotoxicity rating ABUTH: 14 days after application, rating scale 0-100; for Pre-emerge Herbicidal Activity ABUTH (phytotoxicity rating, scale 0-100): rated 14 days after application, 0 = no damage, 100 = complete death
In short: (§1)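 Visual ratings on a 0-100 scale (0 no damage, 100 all plants dead) were taken at 14 days after treatment. Rates of 15-1000 g ai/ha in acetone, 187 l/ha, were sprayed onto soil one day after planting (pre-emerge) or onto 2-3 leaf plants with 0.25% v/v surfactant (post-emerge).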

[2] = test system: barnyardgrass (Echinochloa crus-galli, ECHCG); test: as above; settings: for phytotoxicity rating ECHCG: 14 days after application, rating scale 0-100; for Pre-emerge Herbicidal Activity ECHCG (phytotoxicity rating, scale 0-100): rated 14 days after application, 0 = no damage, 100 = complete death
In short: as §1

[3] = test system: large crabgrass (Digitaria sanguinalis, DIGSA); test: as above; settings: for phytotoxicity rating DIGSA: 14 days after application, rating scale 0-100; for Pre-emerge Herbicidal Activity DIGSA (phytotoxicity rating, scale 0-100): rated 14 days after application, 0 = no damage, 100 = complete death
In short: as §1

[4] = test system: johnsongrass (Sorghum halepense, SORHA); test: as above; settings: for phytotoxicity rating SORHA: 14 days after application, rating scale 0-100; for Pre-emerge Herbicidal Activity SORHA (phytotoxicity rating, scale 0-100): rated 14 days after application, 0 = no damage, 100 = complete death
In short: as §1

[5] = test system: sicklepod (Cassia obtusifolia, CASOB); test: as above; settings: for phytotoxicity rating CASOB: 14 days after application, rating scale 0-100; for Pre-emerge Herbicidal Activity CASOB (phytotoxicity rating, scale 0-100): rated 14 days after application, 0 = no damage, 100 = complete death
In short: as §1

[6] = test system: ivyleaf morningglory (Ipomoea hederacea, IPOHE); test: as above; settings: for phytotoxicity rating IPOHE: 14 days after application, rating scale 0-100; for Pre-emerge Herbicidal Activity IPOHE (phytotoxicity rating, scale 0-100): rated 14 days after application, 0 = no damage, 100 = complete death
In short: as §1

[7] = test system: green foxtail (Setaria viridis, SETVI); test: as above; settings: for phytotoxicity rating SETVI: 14 days after application, rating scale 0-100; for Pre-emerge Herbicidal Activity SETVI (phytotoxicity rating, scale 0-100): rated 14 days after application, 0 = no damage, 100 = complete death
In short: as §1

[8] = test system: lambsquarters (Chenopodium album, CHEAL); test: as above; settings: for phytotoxicity rating CHEAL: 14 days after application, rating scale 0-100; for Pre-emerge Herbicidal Activity CHEAL (phytotoxicity rating, scale 0-100): rated 14 days after application, 0 = no damage, 100 = complete death
In short: as §1

[9] = test system: redroot pigweed (Amaranthus retroflexus, AMARE); test: as above; settings: for phytotoxicity rating AMARE: 14 days after application, rating scale 0-100; for Pre-emerge Herbicidal Activity AMARE (phytotoxicity rating, scale 0-100): rated 14 days after application, 0 = no damage, 100 = complete death
In short: as §1

[10] = test system: field corn (Zea mays L., var. Dekalb 535, CORN); test: Pre-emerge test, crop safety; settings: for phytotoxicity rating CORN: 14 days after application, rating scale 0-100
In short: (§2)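 Sandy loam pots; pre-emerge: sown 1 d pre-spray, surface-watered after, then bottom-watered. Post-emerge: sown 8–21 d before, 2–3 leaf stage, + 0.25% v/v NIS, bottom-watered. Acetone, 187 l/ha track spray, 15–1000 g ai/ha. 0–100 injury score, day 14.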

[11] = test system: upland rice (Oryza sp., var. Tebonnet, RICE); test: Pre-emerge test, crop safety; settings: for phytotoxicity rating RICE: 14 days after application, rating scale 0-100
In short: as §2

[12] = pre-emerge, rate 63 g ai/ha, phytotoxicity rating 0-100 at 14 days after application
[13] = pre-emerge, rate 250 g ai/ha, phytotoxicity rating 0-100 at 14 days after application
[14] = crop damage, pre-emerge, rate 63 g ai/ha, phytotoxicity rating 0-100 at 14 days after application
[15] = crop damage, pre-emerge, rate 250 g ai/ha, phytotoxicity rating 0-100 at 14 days after application
[16] = 63 g ai/ha, phytotoxicity rating 0-100, 14 days after application
[17] = 250 g ai/ha, phytotoxicity rating 0-100, 14 days after application
[18] = 63 g ai/ha, crop damage rating 0-100, 14 days after application
[19] = 250 g ai/ha, crop damage rating 0-100, 14 days after application

COc1c(Cl)cc(F)c(-n2c(=O)n3n(c2=O)CCCC3)c1N [9-4]
50: Pre-emerge Herbicidal Activity IPOHE [6, 13]
30: Pre-emerge Herbicidal Activity SORHA [4, 13] | Pre-emerge Herbicidal Activity CASOB [5, 12] | Pre-emerge Herbicidal Activity CHEAL [8, 12]
70: Pre-emerge Herbicidal Activity SETVI [7, 13]
10: Pre-emerge Herbicidal Activity ECHCG [2, 13] | Pre-emerge Herbicidal Activity IPOHE [6, 12] | Pre-emerge Herbicidal Activity RICE [11, 15]
60: Pre-emerge Herbicidal Activity DIGSA [3, 13] | Pre-emerge Herbicidal Activity CASOB [5, 13] | Pre-emerge Herbicidal Activity AMARE [9, 12]
100: Pre-emerge Herbicidal Activity ABUTH [1, 13] | Pre-emerge Herbicidal Activity AMARE [9, 13]
90: Pre-emerge Herbicidal Activity ABUTH [1, 12]
80: Pre-emerge Herbicidal Activity CHEAL [8, 13]
0: Pre-emerge Herbicidal Activity ECHCG [2, 12] | Pre-emerge Herbicidal Activity DIGSA [3, 12] | Pre-emerge Herbicidal Activity SORHA [4, 12] | Pre-emerge Herbicidal Activity SETVI [7, 12] | Pre-emerge Herbicidal Activity CORN [10, 14] | Pre-emerge Herbicidal Activity CORN [10, 15] | Pre-emerge Herbicidal Activity RICE [11, 14]

C#CCOc1c(Cl)cc(Cl)c(-n2nnn(CCCF)c2=O)c1N [Compound 5-15]
0: Pre-emerge Herbicidal Activity ABUTH [1, 12] | Pre-emerge Herbicidal Activity ABUTH [1, 13] | Pre-emerge Herbicidal Activity ECHCG [2, 12] | Pre-emerge Herbicidal Activity ECHCG [2, 13] | Pre-emerge Herbicidal Activity DIGSA [3, 12] | Pre-emerge Herbicidal Activity DIGSA [3, 13] | Pre-emerge Herbicidal Activity SORHA [4, 12] | Pre-emerge Herbicidal Activity SORHA [4, 13] | Pre-emerge Herbicidal Activity CASOB [5, 12] | Pre-emerge Herbicidal Activity CASOB [5, 13] | Pre-emerge Herbicidal Activity IPOHE [6, 12] | Pre-emerge Herbicidal Activity IPOHE [6, 13] | Pre-emerge Herbicidal Activity SETVI [7, 12] | Pre-emerge Herbicidal Activity SETVI [7, 13] | Pre-emerge Herbicidal Activity CHEAL [8, 12] | Pre-emerge Herbicidal Activity CHEAL [8, 13] | Pre-emerge Herbicidal Activity AMARE [9, 12] | Pre-emerge Herbicidal Activity AMARE [9, 13] | Pre-emerge Herbicidal Activity CORN [10, 14] | Pre-emerge Herbicidal Activity CORN [10, 15] | Pre-emerge Herbicidal Activity RICE [11, 14] | Pre-emerge Herbicidal Activity RICE [11, 15]

COc1c(Cl)cc(F)c(-n2c(=O)cc(C(F)(F)F)n(C)c2=O)c1NC(=O)N(Cc1ccccc1)c1ccccc1 [Compound 3-23]
70: Pre-emerge Herbicidal Activity CHEAL [8, 17]
0: Pre-emerge Herbicidal Activity ABUTH [1, 16] | Pre-emerge Herbicidal Activity ECHCG [2, 16] | Pre-emerge Herbicidal Activity ECHCG [2, 17] | Pre-emerge Herbicidal Activity DIGSA [3, 16] | Pre-emerge Herbicidal Activity DIGSA [3, 17] | Pre-emerge Herbicidal Activity SORHA [4, 16] | Pre-emerge Herbicidal Activity SORHA [4, 17] | Pre-emerge Herbicidal Activity CASOB [5, 16] | Pre-emerge Herbicidal Activity CASOB [5, 17] | Pre-emerge Herbicidal Activity IPOHE [6, 16] | Pre-emerge Herbicidal Activity IPOHE [6, 17] | Pre-emerge Herbicidal Activity SETVI [7, 16] | Pre-emerge Herbicidal Activity SETVI [7, 17] | Pre-emerge Herbicidal Activity CHEAL [8, 16] | Pre-emerge Herbicidal Activity AMARE [9, 16] | Pre-emerge Herbicidal Activity AMARE [9, 17] | Pre-emerge Herbicidal Activity CORN [10, 18] | Pre-emerge Herbicidal Activity CORN [10, 19] | Pre-emerge Herbicidal Activity RICE [11, 18] | Pre-emerge Herbicidal Activity RICE [11, 19]
40: Pre-emerge Herbicidal Activity ABUTH [1, 17]

Cn1c(C(F)(F)F)cc(=O)n(-c2ccc(Cl)cc2C(=O)c2ccccc2)c1=O [14-57]
0: phytotoxicity rating ABUTH ([1]; pre-emerge, 63 g ai/ha) | phytotoxicity rating ABUTH ([1]; pre-emerge, 250 g ai/ha) | phytotoxicity rating ECHCG ([2]; pre-emerge, 63 g ai/ha) | phytotoxicity rating ECHCG ([2]; pre-emerge, 250 g ai/ha) | phytotoxicity rating DIGSA ([3]; pre-emerge, 63 g ai/ha) | phytotoxicity rating SORHA ([4]; pre-emerge, 63 g ai/ha) | phytotoxicity rating SORHA ([4]; pre-emerge, 250 g ai/ha) | phytotoxicity rating CASOB ([5]; pre-emerge, 63 g ai/ha) | phytotoxicity rating CASOB ([5]; pre-emerge, 250 g ai/ha) | phytotoxicity rating IPOHE ([6]; pre-emerge, 63 g ai/ha) | phytotoxicity rating IPOHE ([6]; pre-emerge, 250 g ai/ha) | phytotoxicity rating SETVI ([7]; pre-emerge, 63 g ai/ha) | phytotoxicity rating SETVI ([7]; pre-emerge, 250 g ai/ha) | phytotoxicity rating CHEAL ([8]; pre-emerge, 63 g ai/ha) | phytotoxicity rating CHEAL ([8]; pre-emerge, 250 g ai/ha) | phytotoxicity rating AMARE ([9]; pre-emerge, 63 g ai/ha) | phytotoxicity rating AMARE ([9]; pre-emerge, 250 g ai/ha) | phytotoxicity rating CORN ([10]; pre-emerge, 63 g ai/ha) | phytotoxicity rating CORN ([10]; pre-emerge, 250 g ai/ha) | phytotoxicity rating RICE ([11]; pre-emerge, 63 g ai/ha) | phytotoxicity rating RICE ([11]; pre-emerge, 250 g ai/ha)
20: phytotoxicity rating DIGSA ([3]; pre-emerge, 250 g ai/ha)

O=c1cc(C(F)(F)F)[nH]c(=O)n1-c1c(F)cc(Cl)c(O)c1[N+](=O)[O-] [Compound 1-2, 3-(4-chloro-6-fluoro-3-hydroxy-2-nitrophenyl)-6-trifluoromethyl-2,4(1H, 3H)-pyrimidinedione]
50: Pre-emerge Herbicidal Activity ABUTH (phytotoxicity rating, scale 0-100) ([1]; 63 g ai/ha, pre-emerge)
90: Pre-emerge Herbicidal Activity CASOB (phytotoxicity rating, scale 0-100) ([5]; 63 g ai/ha, pre-emerge)
30: Pre-emerge Herbicidal Activity DIGSA (phytotoxicity rating, scale 0-100) ([3]; 250 g ai/ha, pre-emerge)
10: Pre-emerge Herbicidal Activity ABUTH (phytotoxicity rating, scale 0-100) ([1]; 250 g ai/ha, pre-emerge)
20: Pre-emerge Herbicidal Activity SETVI (phytotoxicity rating, scale 0-100) ([7]; 63 g ai/ha, pre-emerge)
0: Pre-emerge Herbicidal Activity ECHCG (phytotoxicity rating, scale 0-100) ([2]; 63 g ai/ha, pre-emerge) | Pre-emerge Herbicidal Activity ECHCG (phytotoxicity rating, scale 0-100) ([2]; 250 g ai/ha, pre-emerge) | Pre-emerge Herbicidal Activity DIGSA (phytotoxicity rating, scale 0-100) ([3]; 63 g ai/ha, pre-emerge) | Pre-emerge Herbicidal Activity SORHA (phytotoxicity rating, scale 0-100) ([4]; 63 g ai/ha, pre-emerge) | Pre-emerge Herbicidal Activity SORHA (phytotoxicity rating, scale 0-100) ([4]; 250 g ai/ha, pre-emerge) | Pre-emerge Herbicidal Activity IPOHE (phytotoxicity rating, scale 0-100) ([6]; 63 g ai/ha, pre-emerge) | Pre-emerge Herbicidal Activity IPOHE (phytotoxicity rating, scale 0-100) ([6]; 250 g ai/ha, pre-emerge) | Pre-emerge Herbicidal Activity SETVI (phytotoxicity rating, scale 0-100) ([7]; 250 g ai/ha, pre-emerge) | Pre-emerge Herbicidal Activity CHEAL (phytotoxicity rating, scale 0-100) ([8]; 63 g ai/ha, pre-emerge) | Pre-emerge Herbicidal Activity CHEAL (phytotoxicity rating, scale 0-100) ([8]; 250 g ai/ha, pre-emerge) | Pre-emerge Herbicidal Activity AMARE (phytotoxicity rating, scale 0-100) ([9]; 63 g ai/ha, pre-emerge) | Pre-emerge Herbicidal Activity AMARE (phytotoxicity rating, scale 0-100) ([9]; 250 g ai/ha, pre-emerge)
100: Pre-emerge Herbicidal Activity CASOB (phytotoxicity rating, scale 0-100) ([5]; 250 g ai/ha, pre-emerge)

COc1c(Cl)cc(F)c(-n2c(=O)cc(C(F)(F)F)n(C)c2=O)c1O [Compound 16-6, 3-(4-chloro-6-fluoro-2-hydroxy-3-methoxyphenyl)-1-methyl-6-trifluoromethyl-2,4(1H, 3H)-pyrimidinedione]
100: phytotoxicity rating ABUTH ([1]; pre-emerge, 250 g ai/ha) | phytotoxicity rating CHEAL ([8]; pre-emerge, 250 g ai/ha) | phytotoxicity rating AMARE ([9]; pre-emerge, 250 g ai/ha)
90: phytotoxicity rating ABUTH ([1]; pre-emerge, 63 g ai/ha) | phytotoxicity rating IPOHE ([6]; pre-emerge, 250 g ai/ha) | phytotoxicity rating CHEAL ([8]; pre-emerge, 63 g ai/ha)
40: phytotoxicity rating SETVI ([7]; pre-emerge, 250 g ai/ha)
50: phytotoxicity rating ECHCG ([2]; pre-emerge, 250 g ai/ha) | phytotoxicity rating SORHA ([4]; pre-emerge, 250 g ai/ha) | phytotoxicity rating CASOB ([5]; pre-emerge, 63 g ai/ha) | phytotoxicity rating IPOHE ([6]; pre-emerge, 63 g ai/ha)
70: phytotoxicity rating DIGSA ([3]; pre-emerge, 250 g ai/ha) | phytotoxicity rating CASOB ([5]; pre-emerge, 250 g ai/ha) | phytotoxicity rating AMARE ([9]; pre-emerge, 63 g ai/ha)
0: phytotoxicity rating ECHCG ([2]; pre-emerge, 63 g ai/ha) | phytotoxicity rating DIGSA ([3]; pre-emerge, 63 g ai/ha) | phytotoxicity rating SORHA ([4]; pre-emerge, 63 g ai/ha) | phytotoxicity rating SETVI ([7]; pre-emerge, 63 g ai/ha)
